Tests used:
human topoisomerase IIα = molecular target: T1, human topoisomerase IIα (Homo sapiens, UniProt P11388); assay: human topoisomerase II alpha relaxation high-throughput assay (selectivity); assay type: biochemical; details: residual activity at 100 µM compound; mean ± SD, two independent experiments; read-out: Human TopoIIα (% RA at 100 µM)
T1 construct: purchased Inspiralis (Norwich, UK)
Experimental: For selectivity determination, a human topoisomerase II alpha relaxation high-throughput assay was used. The assay kits and black streptavidin-coated 96-well microtiter plates are available from Inspiralis (Norwich, UK). Two independent measurements were performed with an inhibitory concentration of 100 µM. Raw data were calculated as the mean ± SD percentage of the residual enzyme activity.

[1] = Metabolic activity assessment (cytotoxicity), CellTiter 96 Aqueous One; assay type: cell-based; details: human, 72 h treatment, means of three independent measurements ± SD
Experimental: HUVEC (ATCC® CRL-1730™) and HepG2 (ATCC® HB-8065™) cell lines were cultured in Dulbecco’s Modified Eagle Medium (DMEM; Sigma-Aldrich, St. Louis, MO, USA) supplemented with 10% heat-deactivated FBS (Gibco, Grand Island, NE, USA), 2 mM L-glutamine, 100 U/mL penicillin, 100 μg/mL streptomycin (all from Sigma-Aldrich, St. Louis, MO, USA) in a humidified chamber at 37 °C and 5% CO2. The experiments were carried out on passages 4–7 for both cell lines. The tested compounds were dissolved in DMSO and further diluted in culture medium to a desired final concentration. The cells were then seeded into 96-well plates at 5 × 10^4 cells/mL (100 μL/well) or 8 × 10^4 cells/mL (100 μL/well) for HUVEC and HepG2, respectively. The cells were then incubated for 24 h to allow attachment onto the wells. The cells were treated with 1 μM and 50 μM of each compound of interest, or the corresponding vehicle as control. […] Their metabolic activity was assessed after 72 h treatment using a CellTiter 96 Aqueous One Solution Cell Proliferation Assay (Promega, Madison, WI, USA), in accordance with the manufacturer’s instructions. The absorbance was measured at 492 nm on an automated microplate reader, Tecan Spark (Tecan Group Ltd., Männedorf, CH, Switzerland). Data are presented as the percentage of metabolic activity of control cells stimulated with vehicle, or as an IC50 value (mean ± SD) from three independent experiments, each conducted in triplicate (for screening) or duplicate (for IC50 determination). IC50 values were calculated using a non-linear regression model and with Graph Pad Prism 9 software.

T1 sequence (P11388 whole entry): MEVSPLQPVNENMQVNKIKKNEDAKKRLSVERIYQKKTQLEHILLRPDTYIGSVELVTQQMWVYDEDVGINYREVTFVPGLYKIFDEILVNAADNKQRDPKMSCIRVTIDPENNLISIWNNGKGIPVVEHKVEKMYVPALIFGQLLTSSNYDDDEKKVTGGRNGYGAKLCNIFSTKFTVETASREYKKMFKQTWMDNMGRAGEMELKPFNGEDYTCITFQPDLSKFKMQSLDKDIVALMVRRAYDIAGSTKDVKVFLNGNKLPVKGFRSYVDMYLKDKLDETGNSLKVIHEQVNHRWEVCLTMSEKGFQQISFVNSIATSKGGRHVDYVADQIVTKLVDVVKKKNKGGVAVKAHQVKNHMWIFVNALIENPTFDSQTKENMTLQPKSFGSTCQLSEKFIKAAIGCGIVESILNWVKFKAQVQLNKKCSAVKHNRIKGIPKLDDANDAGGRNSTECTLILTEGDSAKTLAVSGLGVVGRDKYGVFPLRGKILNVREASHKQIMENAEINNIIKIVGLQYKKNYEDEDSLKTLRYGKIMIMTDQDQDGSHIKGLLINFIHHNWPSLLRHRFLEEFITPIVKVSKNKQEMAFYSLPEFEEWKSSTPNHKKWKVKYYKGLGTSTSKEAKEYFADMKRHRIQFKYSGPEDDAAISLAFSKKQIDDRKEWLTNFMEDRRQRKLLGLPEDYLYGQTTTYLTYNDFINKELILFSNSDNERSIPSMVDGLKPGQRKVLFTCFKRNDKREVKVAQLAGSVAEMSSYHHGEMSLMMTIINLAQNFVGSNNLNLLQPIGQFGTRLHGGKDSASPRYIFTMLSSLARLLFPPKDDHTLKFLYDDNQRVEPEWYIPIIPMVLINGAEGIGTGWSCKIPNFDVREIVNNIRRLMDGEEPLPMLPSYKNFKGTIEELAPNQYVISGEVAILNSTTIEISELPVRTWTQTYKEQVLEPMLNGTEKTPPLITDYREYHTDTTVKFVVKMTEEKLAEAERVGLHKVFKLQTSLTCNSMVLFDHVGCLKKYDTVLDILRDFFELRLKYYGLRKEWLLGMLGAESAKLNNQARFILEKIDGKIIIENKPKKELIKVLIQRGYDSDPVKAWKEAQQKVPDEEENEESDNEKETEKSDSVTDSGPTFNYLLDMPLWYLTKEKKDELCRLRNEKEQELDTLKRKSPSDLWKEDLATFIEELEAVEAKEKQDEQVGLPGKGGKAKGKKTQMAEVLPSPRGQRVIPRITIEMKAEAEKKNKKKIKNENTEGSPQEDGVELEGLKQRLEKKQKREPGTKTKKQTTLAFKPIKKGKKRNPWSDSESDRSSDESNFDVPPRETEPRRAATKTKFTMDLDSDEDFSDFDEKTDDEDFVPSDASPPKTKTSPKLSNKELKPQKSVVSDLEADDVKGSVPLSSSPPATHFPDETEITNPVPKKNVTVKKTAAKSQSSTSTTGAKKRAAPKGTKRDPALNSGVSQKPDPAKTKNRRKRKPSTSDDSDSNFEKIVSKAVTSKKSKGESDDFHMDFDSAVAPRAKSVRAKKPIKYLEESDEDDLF

| SMILES | remaining activity at 100 µM (human topoisomerase IIα) [%] | IC50 at 72 h ([1]; HUVEC cells (ATCC CRL-1730)) [µM] | IC50 at 72 h ([1]; HepG2 cells (ATCC HB-8065)) [µM] |
| --- | --- | --- | --- |
| COc1ccc2nccc(CCN3CCC(NCc4ccc(C)cc4)CC3)c2n1 [Compound 5, 1-(2-(6-Methoxy-1,5-naphthyridin-4-yl)ethyl)-N-(4-methylbenzyl)piperidin-4-amine] | 103 | 36.5 ± 9.82 | 20 ± 3.01 |
| COc1ccc2nccc(OCC3CCC(NCc4ccc(C)cc4)CC3)c2n1 (stereo not drawn) [Compound 6] | 101 | 36.6 ± 7.91 | 22.5 ± 2.7 |
| COc1ccc2nccc(OCC3CCC(NCc4ccc(C)cc4)CO3)c2n1 (stereo not drawn) [Compound 7, 6-(((6-Methoxy-1,5-naphthyridin-4-yl)oxy)methyl)-N-(4-methylbenzyl)tetrahydro-2H-pyran-3-amine] | 101 | > 50 | > 50 |
| COc1ccc2nccc(C(O)CC3CCC(NCc4ccc(C)cc4)CC3)c2n1 (stereo not drawn) [Compound 8, 1-(6-Methoxy-1,5-naphthyridin-4-yl)-2-(4-((4-methylbenzyl)amino)cyclohexyl)ethan-1-ol] | 100 ± 1 | 33.1 ± 6.13 | 22.3 ± 0.36 |

Source: paper PMC10215804, “Exploring Alternative Pathways to Target Bacterial Type II Topoisomerases Using NBTI Antibacterials: Beyond Halogen-Bonding Interactions” (Antibiotics, 2023)
